Data on 6 compounds can be found in ChEMBL document CHEMBL1201862, “PubChem BioAssay data set” (2004).

In experiment [1] the test system is BJ. Kind of experiment: cytotoxicity toward BJ-TERT fibroblasts, dose response, cell-based, RAS-independent, luminescence (AID 1933). The format is functional, Homo sapiens. The conditions noted are these: Homo sapiens, BJ.
For experiment [2], the target named is Luciferin 4-monooxygenase (Photinus pyralis, UniProt P08659). The experiment in a line: Counter Screen for Luciferase-based Assay Positives. [Related pubchem assays: 620, 618, 411 ]. On the technique in general: The purpose of a counterscreen is to sort out artefacts and off-target activity.
Luciferin 4-monooxygenase, sequence (P08659 whole entry): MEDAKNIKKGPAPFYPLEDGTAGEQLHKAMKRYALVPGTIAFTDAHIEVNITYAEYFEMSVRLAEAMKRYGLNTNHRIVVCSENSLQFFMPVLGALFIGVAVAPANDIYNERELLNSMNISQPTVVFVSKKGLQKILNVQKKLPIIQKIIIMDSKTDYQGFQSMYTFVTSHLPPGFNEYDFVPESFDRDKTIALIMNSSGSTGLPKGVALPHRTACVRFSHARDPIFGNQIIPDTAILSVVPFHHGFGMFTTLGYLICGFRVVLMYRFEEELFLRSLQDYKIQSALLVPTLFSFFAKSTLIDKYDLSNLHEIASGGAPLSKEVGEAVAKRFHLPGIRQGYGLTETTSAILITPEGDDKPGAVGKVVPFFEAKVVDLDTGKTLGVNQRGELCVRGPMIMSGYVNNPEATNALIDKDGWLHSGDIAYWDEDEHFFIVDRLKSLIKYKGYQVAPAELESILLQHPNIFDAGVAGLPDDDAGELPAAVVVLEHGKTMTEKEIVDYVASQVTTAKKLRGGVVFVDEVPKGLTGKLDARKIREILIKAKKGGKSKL
For experiment [3], the system named is BJ. Kind of experiment: cells. It counts as functional, cell-based, Homo sapiens. The conditions noted are these: Homo sapiens, BJ.
Experiment [4] deals with HT-1080. The experiment in a line: cytotoxicity in HT1080 fibrosarcoma cells, cell-based, fluorescence readout (AID 620). The format is functional. The following applies: Homo sapiens.
The subject of experiment [5] is BJ. Kind of experiment: cytotoxicity toward BJ-TERT-LT-ST fibroblasts, dose response, cell-based, RAS-independent, luminescence (AID 1935).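 Also: BJ fibroblasts immortalized with TERT plus LT and ST oncogenes.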 The format is functional, Homo sapiens. The following applies: Homo sapiens, BJ.
A short description of experiment [6]: cytotoxicity toward DRD oncogenic fibroblasts, dose response, cell-based, non-viral oncogenic, luminescence (AID 1934). It counts as functional. The conditions noted are these: Homo sapiens.
Experiment [7] is described as follows: cytotoxicity in HEK-293T cells, dose response, cytotoxicity control for TCR NF-kB inhibitor project, luminescence, T-cell screen hits (AID 489026).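 Also: cells exposed to compound about 14 hours before the viability readout.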 The format is functional, cell-based.
A short description of experiment [8]: Luminescence Cell-Based Dose Response to Identify Activators of 5'UTR Stem-Loop Driven Prion Protein mRNA Translation in H4-C Neuroglioblastoma Cells. [Related pubchem assays: 1829 (Project Summary), 1814 (Primary HTS)]. It counts as functional.
Experiment [9] has as its system H4. The experiment in a line: Luminescence Cell-Based Dose Response HTS to Identify Activators of 5'UTR Stem-Loop Driven Prion Protein mRNA Translation in H4 Neuroglioblastoma Cells. [Related pubchem assays: 1829 (Project Summary), 1814 (Primary HTS)]. The conditions noted are these: Homo sapiens. It counts as functional.
Experiment [10] is described as follows: Luminescence Cell-Based Dose Response to Identify Activators of Luciferase Translation or Activity in H4-C Neuroglioblastoma Cells. [Related pubchem assays: 1829 (Project Summary), 1814 (Primary HTS)]. It counts as functional.
The target in experiment [11] is Prothrombin (Homo sapiens, UniProt P00734). Kind of experiment: Thrombin 1536 HTS Dose Response Confirmation. [Related pubchem assays: 1046 (Thrombin 1536 HTS; hits were confirmed in this assay)]. It counts as functional.
The nature of experiment [12]: Luminescence Cell-Based Dose Confirmation to Identify Activators of 5'UTR Stem-Loop Driven Alpha-Synuclein mRNA Translation in H4 Neuroglioblastoma Cells. [Related pubchem assays: 1829 (Project Summary), 1814 (Primary HTS)]. It counts as functional.
For experiment [13], the target named is T1, Estrogen receptor beta (Homo sapiens, UniProt Q92731).
T1 sequence (Q92731 whole entry): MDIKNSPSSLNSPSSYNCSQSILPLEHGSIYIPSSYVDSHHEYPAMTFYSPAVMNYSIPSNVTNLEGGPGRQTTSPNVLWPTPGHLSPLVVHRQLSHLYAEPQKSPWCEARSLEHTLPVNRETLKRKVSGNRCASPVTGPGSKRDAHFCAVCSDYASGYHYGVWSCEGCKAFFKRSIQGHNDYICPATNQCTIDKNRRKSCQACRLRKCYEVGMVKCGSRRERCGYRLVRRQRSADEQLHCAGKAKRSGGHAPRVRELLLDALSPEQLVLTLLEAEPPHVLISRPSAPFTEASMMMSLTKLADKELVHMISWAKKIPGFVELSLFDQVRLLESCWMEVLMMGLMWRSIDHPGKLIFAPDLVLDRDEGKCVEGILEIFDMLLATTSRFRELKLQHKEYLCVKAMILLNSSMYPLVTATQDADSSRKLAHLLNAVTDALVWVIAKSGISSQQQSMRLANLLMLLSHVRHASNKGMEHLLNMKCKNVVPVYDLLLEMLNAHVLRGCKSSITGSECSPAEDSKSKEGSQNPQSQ
Experiment [14] addresses T1, Estrogen receptor beta. Kind of experiment: ERβ–SRC-3 coactivator interaction inhibitors, confirmation, orthogonal assay, biochemical, ELISA, streptavidin-HRP readout (AID 1060).
Experiment [15] concerns the target DNA dC->dU-editing enzyme APOBEC-3A (Homo sapiens, UniProt P31941). The experiment in a line: Dose Response confirmation of small molecule APOBEC3A DNA Deaminase Inhibitors via a fluorescence-based single-stranded DNA deaminase assay. [Related pubchem assays (depositor defined):AID493011, AID493024]. It counts as functional.
Experiment [16] addresses DNA dC->dU-editing enzyme APOBEC-3G (Homo sapiens, UniProt Q9HC16). It counts as functional.
A short description of experiment [17]: Luminescence Cell-Based Dose Confirmation HTS to Identify Activators of 5'UTR Stem-Loop Driven Alpha-Synuclein mRNA Translation in H4 Neuroglioblastoma Cells. [Related pubchem assays: 1829 (Project Summary), 1814 (Primary HTS)]. The format is functional.
Experiment [18] is described as follows: Luminescence Cell-Based Dose Response HTS to Identify Activators of Luciferase Translation or Activity in H4 […] Cells. [Related pubchem assays: 1829 (Project Summary), 1814 (Primary HTS)]. The format is functional.
For experiment [19], the target named is Lysosomal acid glucosylceramidase (Homo sapiens, UniProt P04062). The experiment in a line: Dose response cell-based high throughput screening assay to identify enhancers of beta-glucosidase activity. [Related pubchem assays: 784 ]. The format is functional.
Lysosomal acid glucosylceramidase, sequence (P04062 whole entry): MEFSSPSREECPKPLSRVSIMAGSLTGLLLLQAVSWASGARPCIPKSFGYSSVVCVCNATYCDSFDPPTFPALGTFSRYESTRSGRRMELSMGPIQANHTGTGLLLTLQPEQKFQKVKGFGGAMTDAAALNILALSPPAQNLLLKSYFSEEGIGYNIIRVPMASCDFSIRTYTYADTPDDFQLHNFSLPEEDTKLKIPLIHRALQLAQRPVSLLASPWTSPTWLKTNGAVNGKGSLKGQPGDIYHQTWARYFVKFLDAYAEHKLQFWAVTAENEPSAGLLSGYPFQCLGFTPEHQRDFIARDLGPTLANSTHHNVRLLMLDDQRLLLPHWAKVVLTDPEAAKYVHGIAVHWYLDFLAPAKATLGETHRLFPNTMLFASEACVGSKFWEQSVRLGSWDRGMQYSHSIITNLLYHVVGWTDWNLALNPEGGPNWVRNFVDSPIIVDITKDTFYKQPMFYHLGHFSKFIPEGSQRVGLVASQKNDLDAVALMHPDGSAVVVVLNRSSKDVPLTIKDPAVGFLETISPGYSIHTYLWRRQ

Where “and” joins values, the source holds several entries; their conditions need not be identical. Equal values may be shown once. Calls of active or inactive are those of the source. Rule as the data show it, for most assays here: actives have a measured EC50 and inactives only a lower limit. Some results are limits rather than exact numbers.

DNA dC->dU-editing enzyme APOBEC-3G, sequence (Q9HC16 whole entry): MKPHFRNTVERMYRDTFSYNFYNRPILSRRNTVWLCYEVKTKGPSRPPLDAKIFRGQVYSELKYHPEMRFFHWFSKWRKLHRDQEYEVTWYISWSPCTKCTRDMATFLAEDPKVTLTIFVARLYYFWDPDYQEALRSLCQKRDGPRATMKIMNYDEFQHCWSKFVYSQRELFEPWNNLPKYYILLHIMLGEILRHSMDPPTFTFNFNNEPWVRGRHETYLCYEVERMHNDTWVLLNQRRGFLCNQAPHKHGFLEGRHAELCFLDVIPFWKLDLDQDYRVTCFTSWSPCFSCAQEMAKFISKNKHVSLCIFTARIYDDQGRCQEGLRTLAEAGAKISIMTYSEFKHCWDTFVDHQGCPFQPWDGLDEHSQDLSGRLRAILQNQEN
DNA dC->dU-editing enzyme APOBEC-3A, sequence (P31941 whole entry): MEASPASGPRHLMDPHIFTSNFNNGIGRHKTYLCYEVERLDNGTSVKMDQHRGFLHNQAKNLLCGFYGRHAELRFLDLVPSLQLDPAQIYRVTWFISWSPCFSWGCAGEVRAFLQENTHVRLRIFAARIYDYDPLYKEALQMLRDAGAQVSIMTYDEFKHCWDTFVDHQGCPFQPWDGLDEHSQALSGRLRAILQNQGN

On to `CCCC(=O)C1=C(Nc2ccc(OC)cc2OC)CC(C)(C)CC1=O`, for which the EC50 (as a rule, the concentration needed to bring the measured effect to its halfway point) in experiment [1] was 13.1 µM (active); in [2] it was 0.55 µM (active); in [3] it was 29.9 µM (active); in [4], 17.3 µM (active); in experiment [5] it was 4.43 µM (active); in experiment [6], 4.69 µM (active). For the same compound, the IC50 (commonly the midpoint of a concentration-inhibition curve) in experiment [7] was > 80 µM (inactive).
Regarding `Cc1ccc(-n2c(C)cc(C(=O)CSc3nncs3)c2C)cc1`, the EC50 is 0.332 µM (active) in experiment [8], < 0.1 µM (active) in experiment [9], 0.34 µM (active) in [10] and 0.346 µM (active) in experiment [12]. Further, the IC50 in [11] is recorded as > 50 µM (not active).
With `Cc1ccccc1Nc1nnc(SCC(=O)NCc2ccco2)s1`, the IC50 in experiment [13] was 10.3 µM (active); in [14], 3.24 µM (not active) and > 50 µM (not active).
For `COCCCn1c(Cc2csc(Nc3cccc(Cl)c3)n2)nnc1SCC(=O)OC1CCCCC1`, the IC50 in experiment [13] is < 1.56 µM (active); in experiment [14], 43.4 nM (not active); in [15], 20.8 µM (active); in experiment [16] it was 38.8 µM (active).
As to `O=C(Nc1ccc(CN2CCOCC2)cc1)c1ccc(Cl)cc1`, the EC50 in experiment [8] is 0.685 µM (active); in experiment [17], < 0.1 µM (active); in [18], 4.65 µM (active); in experiment [9], 16.1 µM (active); in [10], 0.951 µM (active); in experiment [12], > 12 µM (not active).
`CCOC(=O)c1ccc(NC(=O)CSC2=NC(=O)C(CC)C(=O)N2)cc1` (stereo not given): the EC50 in experiment [19] was > 10 µM (not active).
